Laboratory results published in patent US20030027722A1, “Influencing the activity of plant growth regulators” (priority 1998, published 2003).

What was measured:
apple stalk slices = assay: rooting regeneration on apple stalk slices with elicitors; assay type: cell-based; settings: elicitor 10^−10 M; apple stalk slices
Method: The effect of the elicitors on rooting regeneration on apple stalk slices was studied. The stalk slices were incubated on medium with elicitors in combination with a sub-optimal auxin concentration (1 μM indolebutyric acid or 1 μM indoleacetic acid) which were added for 1 or 3 days to the plant tissue for testing. The increase was measured in the number of regenerated roots compared to the auxin control.

pea = assay: lateral root formation in pea; assay type: in vivo; settings: elicitor 10^−8 to 10^−16 M
Method: (§1) The elicitor uridine was tested on shoot regeneration in saintpaulia, lateral root formation in pea, cell division in tobacco and root induction in larkspur and apple.

larkspur = assay: root induction in larkspur; assay type: in vivo; settings: root formation larkspur, elicitor 10^−10 M
Method: as §1

tobacco = assay: cell division in tobacco; assay type: cell-based; settings: elicitor 10^−10 M
Method: as §1

saintpaulia = assay: shoot regeneration in saintpaulia; assay type: cell-based; settings: elicitor 10^−10 M
Method: as §1

O=c1ccn([C@@H]2O[C@H](CO)[C@@H](O)[C@H]2O)c(=O)[nH]1 [uridine]
increased regeneration in relation to control (auxin alone) (apple stalk slices): 75% | increased regeneration in relation to control (auxin alone) (pea): 100% | increased regeneration in relation to control (auxin alone) (larkspur): 50% | increased regeneration in relation to control (auxin alone) (tobacco): 75% | increased regeneration in relation to control (auxin alone) (saintpaulia): 100%
